# Non-standard residues stand in square brackets, D forms with d.
# What was measured:
# acetylcholine = assay: Acetylcholine content in the brain homogenate of rat models with Alzheimer's disease; type: in vivo; settings: compared to the control, pathology and donepezil groups, p<0.05
# Procedure: (§1) The drugs were administered daily, once a day.
# 1966, t. […] M. I. Prokhorova, Leningrad, pub. House LSU, 1982.—pp. 256-258].
# butyrylcholinesterase = settings: tetrapeptide 0.1 mg/kg
# Procedure: (§2) Scopolamine was administered i.p. to the animals in all groups except for the control at a 1 mg/kg dose daily, once a day for 27 days. From the 28th day on, the animals in groups 2 and 3 were administered the comparator drug and the claimed preparation respectively over the course of 10 days. The drugs were administered daily, once a day.
# (§3) The tetrapeptides were administered i.n at a 0.1 mg/kg dose. The animals in the pathology group received 0.9% sodium chloride solution i.n. and i.p. as a placebo.
# (§4) A procedure for the isolation of noradrenaline (together with adrenaline), dopamine, 5-hydroxy tryptamine and histamine from the same tissue sample using a single column of strongly acidic cation exchange resin 1C. […] Determination of ATP content in tissue//Methods for biochemical research/Edited by prof. M. I. Prokhorova, Leningrad, pub.
# acetylcholinesterase = acetylcholinesterase (Rattus norvegicus, UniProt P37136); settings: donepezil 1 mg/kg, tetrapeptide 0.1 mg/kg
# Procedure: as §2, §3, §4
# [1] = Arteriovenous glucose difference in rat models with Alzheimer's disease; type: in vivo; settings: tetrapeptide 0.1 mg/kg; as a trend
# Procedure: as §1
# The OF and EE tests were conducted on the 1st day, PST—on the 2nd day, CPAR—on the 1st and 10th day post treatment with the preparations. The CPAR proficiency criterium—remaining in the light area of the CPAR device during at least 180 sec. The antiamnesic action (AA) in the CPAR test was calculated using Butler's formula [K. S. Radionova. Original nootropic preparation Noopept ameliorates memory loss caused by the M- and N-choline receptor blockade in rats/K. S. Radionova, A. P. Bel'nik, R. U. Ostrovskaya//Bul experim. Biology and Medicine.—2008.—T.146, No 1.—pp 65-68]. After that, the animals were removed from the experiment by administering a narcotic, followed by decapitation. The brain was extracted and weighed, and the brain weight coefficient (BWC) was calculated. […] Glucose levels in whole arterial (common carotid artery) and venous (venous cerebral sinus) blood were determined by the glucose oxidase test, the difference in the arterial-venous glucose content was calculated (glucose consumption marker). The levels of average weight molecules—the toxic products of cell biodegradation damaged during the disease (nucleoside derivatives, peptoids, glucuronic acid salts, etc.) in the blood serum (AWM) were calculated [A. N. Kovalevsky. […]
# serotonin = assay: Serotonin level in the brain of rat models with Alzheimer's disease; type: in vivo; settings: donepezil 1 mg/kg, tetrapeptide 0.1 mg/kg
# Procedure: as §1
# M. I. Prokhorova, Leningrad, pub.
# malonic aldehyde = assay: Malonic aldehyde content in the brain of rat models with Alzheimer's disease; type: in vivo; settings: tetrapeptide 0.1 mg/kg
# reduced glutathione = assay: Reduced glutathione level in the brain of rat models with Alzheimer's disease; type: in vivo; settings: tetrapeptide 0.1 mg/kg
# Procedure: as §1
# Standard biochemical methods were used to determine the content and activity of antioxidant defense enzymes and products of lipid peroxidation: malonic dialdehyde (MDA) [Modern Biochemistry Methods/[edited by V. N. Orekhovich]; M. Medicine, 1977, 392 pp]; superoxide dismutase (SOD) [O. P. Makarevich Activity of superoxide dismutase in blood in the acute period of various diseases/O. P. Makarevich, P. P. Golikov//Lab. Science, 1983, No 6, pp 24-27]; catalase [Methods for the Determination of Catalase Activity/M. A. Korolyuk, L. I. Ivanova, I. G. Mayorova, et al//Lab. Science, 1988, No 1, pp 16-19]; and reduced glutathione [T. A. Kochetov A Practical Guide to Enzymology. M. Nauka, 1980, 280 pp].
# [2] = Brain weight coefficient (BWC) in rat models with Alzheimer's disease; type: in vivo; settings: statistically insignificant; donepezil 1 mg/kg, tetrapeptide 0.1 mg/kg
# Procedure: as §1
# The OF and EE tests were conducted on the 1st day, PST—on the 2nd day, CPAR—on the 1st and 10th day post treatment with the preparations. […] The antiamnesic action (AA) in the CPAR test was calculated using Butler's formula [K. S. Radionova. […] After that, the animals were removed from the experiment by administering a narcotic, followed by decapitation. The brain was extracted and weighed, and the brain weight coefficient (BWC) was calculated. Immediately after extraction, the brain was frozen in liquid nitrogen and used in subsequent biochemical and histochemical studies. Glucose levels in whole arterial (common carotid artery) and venous (venous cerebral sinus) blood were determined by the glucose oxidase test, the difference in the arterial-venous glucose content was calculated (glucose consumption marker). The levels of average weight molecules—the toxic products of cell biodegradation damaged during the disease (nucleoside derivatives, peptoids, glucuronic acid salts, etc.) in the blood serum (AWM) were calculated [A. N. Kovalevsky. Notes on the screening method of determination average weight molecules/A. N. Kovalevsky, O. Ye. Nifantiev//Lab. Science. […] 35-39].
# Chain of acetylcholinesterase (P37136 32-614): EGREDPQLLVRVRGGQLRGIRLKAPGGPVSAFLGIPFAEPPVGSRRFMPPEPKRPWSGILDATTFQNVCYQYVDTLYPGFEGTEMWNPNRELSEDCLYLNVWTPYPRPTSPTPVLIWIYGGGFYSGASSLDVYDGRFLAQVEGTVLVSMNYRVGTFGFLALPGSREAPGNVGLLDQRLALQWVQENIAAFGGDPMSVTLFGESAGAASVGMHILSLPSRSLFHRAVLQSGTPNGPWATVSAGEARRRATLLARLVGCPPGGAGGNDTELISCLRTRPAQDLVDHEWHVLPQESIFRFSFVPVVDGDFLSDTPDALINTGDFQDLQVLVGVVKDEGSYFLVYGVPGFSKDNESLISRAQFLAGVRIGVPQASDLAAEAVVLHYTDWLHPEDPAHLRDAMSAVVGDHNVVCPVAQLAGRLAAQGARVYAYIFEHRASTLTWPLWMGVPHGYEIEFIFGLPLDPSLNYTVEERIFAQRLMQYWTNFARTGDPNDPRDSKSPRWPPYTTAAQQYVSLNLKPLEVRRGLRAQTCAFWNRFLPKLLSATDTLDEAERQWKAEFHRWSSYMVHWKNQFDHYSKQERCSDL
substance,measurement,setting,value
"acetyl-D-Lys-Lys-Arg-Arg-amide (Ac-[dK]KRR-NH2; SMILES CC(=O)N[C@H](CCCCN)C(=O)N[C@@H](CCCCN)C(=O)N[C@@H](CCCNC(=N)N)C(=O)N[C@@H](CCCNC(=N)N)C(N)=O) [tetrapeptide (LYS), peptide acetyl-X-ARG-ARG-amide, X = D- and L-amino acid residues of lysine]",content of acetylcholinesterase in the brain (FIG. 11),acetylcholine,statistically significantly reduces
same,butyrylcholinesterase activity in the brain,butyrylcholinesterase,significantly increases
same,AChE activity in synapsosomes and in the whole brain homogenate,acetylcholinesterase,reduces
same,glucose utilization in the brain,[1],improved glucose utilization
same,reduction of the serotonin level in the brain,serotonin,23.8%
same,reduction of malonic aldehyde content in the brain relative to the pathology group,malonic aldehyde,39.8%
same,increase of the level of reduced glutathione in the brain,reduced glutathione,36.6%
same,reduction of the brain weight coefficient (BWC),[2],14.3%
